According to patent US20250011311A1, “AMIDO HETEROAROMATIC COMPOUNDS” (AstraZeneca AB, priority 2022, published 2025):
Where two headings read alike, the source gives them in different places.

What was measured:
[1] = biological target: recombinant 17bHSD13 (N2-K300) (Homo sapiens (Human), UniProt Q7Z5P4); assay: In Vitro 17bHSD13 Enzyme Assay; assay type: biochemical; conditions: 80 nM 17bHSD13, 0.5 mM NAD, 20 μM Estradiol, 2.5 h; estradiol to estrone by LC-MS/MS
Method in brief: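 Human 17bHSD13 (N2-K300, 80 nM) with 0.5 mM NAD, 20 μM estradiol and varied compound in 50 mM Tris-Cl pH 7.4, 5 mM EDTA, 0.01% DDM. Estrone/(estrone+estradiol) ratio read by LC-MS/MS (APCI, positive MRM). Inhibition normalised to DMSO and a known-inhibitor control; IC50 from curve fit.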

[2] = biological target: over expressed HSD17β13 in HEK293S cells (Homo sapiens (Human), UniProt Q7Z5P4); assay: In Vitro 17bHSD13 Cell Assay; assay type: cell-based
Method in brief: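 HEK293S cells overexpressing HSD17β13 convert estradiol to estrone; product read by LC-MS/MS (APCI, positive MRM) as AUC ratio estrone/(estrone+estradiol). Effect normalised between DMSO and maximal inhibition by a known inhibitor control; IC50 from curve fit.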

CYP2C9 = CYP2C9 (Homo sapiens (Human), UniProt P11712); assay: Assay B: Cytochrome P450 Inhibition 2C9
human hepatocytes = assay: Assay A: Metabolic Stability in Human Hepatocytes; assay type: in vitro ADME; conditions: cryopreserved human hepatocytes, 10^6 viable cells/mL, 1 μM compound, 37° C.
Protocol: Assay A: Metabolic Stability in Human Hepatocytes
Hepatocyte metabolic stability was determined in accordance with the method described by Jacobson et al., An optimized automated assay for determination of metabolic stability using hepatocytes: assay validation, variance component analysis, and in vivo relevance. Assay Drug Dev Technol 2007, 5 (3), 403-415. DOI: 10.1089/adt.2007.059, which is incorporated herein by reference. Cryopreserved hepatocytes at a concentration of 10^6 viable cells/mL were used. After thawing, hepatocytes were incubated for 10 min to warm to 37° C. and test compounds, dissolved in acetonitrile, were added to give a final concentration of 1 μM. At 0.5, 5, 15, 30, 45, 60, 80, 100 and 120 min, the incubation system was mixed and 20 μL aliquots were transferred at each time point to wells in a separate plate filled with 80 μL MeCN to stop the reaction. The quenching plate was then vortexed followed by centrifugation, and supernatants were analyzed by LC-MS/MS. Peak areas were determined from extracted ion chromatograms, and the in vitro intrinsic clearance (in vitro CLint, in μL/min/10^6 cells) of parent compound was calculated from the slope in the regression analysis of the natural logarithm of parent concentration vs time curve.

[3] = biological target: recombinant 17bHSD4 (M1-N311) (Homo sapiens (Human), UniProt P51659); assay: In Vitro 17bHSD4 Enzyme Assay; assay type: biochemical; conditions: 40 nM 17bHSD4, 0.125 mM NAD, 15 μM Estradiol, 1.5 h; NADH fluorescence; read-out: 17HSD17b4 Enzyme assay IC50
[4] = biological target: over expressed HSD17β9 in HEK293S cells (Homo sapiens (Human), UniProt Q92781); assay: In Vitro 17bHSD9 Cell Assay; assay type: cell-based
Method in brief: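 HEK293S cells overexpressing HSD17β9 were plated at 10K cells/well in DMEM + 10% FBS and cultured 18 h. Retinol-to-retinal conversion in media was quantified by LC-MS/MS (MRM) as retinal/(retinal + retinol). IC50 was fitted after normalisation to DMSO and full inhibition by a reference inhibitor.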

[5] = HEK293S cells over expressing HSD17β13, estradiol to estrone conversion, 18 h, LC-MS/MS, read-out: 17bHSD1713 Cell assay IC50
[6] = HEK293S cells over expressing HSD17β9, retinol to retinal conversion, 18 h, LC-MS/MS, read-out: 17bHSD9 Cell assay IC50

Sequence of over expressed HSD17β9 in HEK293S cells (Q92781 whole entry): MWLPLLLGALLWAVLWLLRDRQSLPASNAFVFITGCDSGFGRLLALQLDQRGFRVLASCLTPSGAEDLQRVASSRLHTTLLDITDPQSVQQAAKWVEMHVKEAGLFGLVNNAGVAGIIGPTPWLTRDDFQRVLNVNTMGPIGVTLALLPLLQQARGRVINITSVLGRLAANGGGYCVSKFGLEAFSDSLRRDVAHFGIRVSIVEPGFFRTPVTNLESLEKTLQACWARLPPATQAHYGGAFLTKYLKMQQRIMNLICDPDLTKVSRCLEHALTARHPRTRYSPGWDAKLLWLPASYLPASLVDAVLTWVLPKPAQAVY
Sequence of over expressed HSD17β13 in HEK293S cells (Q7Z5P4 20-300): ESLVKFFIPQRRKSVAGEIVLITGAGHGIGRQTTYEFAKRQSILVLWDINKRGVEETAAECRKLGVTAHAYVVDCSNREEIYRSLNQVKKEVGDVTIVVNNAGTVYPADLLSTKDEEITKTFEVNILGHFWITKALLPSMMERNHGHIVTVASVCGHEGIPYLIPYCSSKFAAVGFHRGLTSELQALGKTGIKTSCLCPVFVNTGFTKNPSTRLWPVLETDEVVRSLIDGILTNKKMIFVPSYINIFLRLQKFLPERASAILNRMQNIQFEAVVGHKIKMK
Sequence of recombinant 17bHSD13 (N2-K300) (Q7Z5P4 2-300): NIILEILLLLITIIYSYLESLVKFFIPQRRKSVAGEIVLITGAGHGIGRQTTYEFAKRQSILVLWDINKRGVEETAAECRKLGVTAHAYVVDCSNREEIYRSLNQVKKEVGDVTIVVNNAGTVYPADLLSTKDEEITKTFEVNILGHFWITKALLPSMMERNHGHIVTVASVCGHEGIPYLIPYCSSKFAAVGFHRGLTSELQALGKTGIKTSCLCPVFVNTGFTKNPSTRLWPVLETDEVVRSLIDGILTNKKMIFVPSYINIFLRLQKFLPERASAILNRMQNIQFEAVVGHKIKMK
Sequence of recombinant 17bHSD4 (M1-N311) (P51659 1-311): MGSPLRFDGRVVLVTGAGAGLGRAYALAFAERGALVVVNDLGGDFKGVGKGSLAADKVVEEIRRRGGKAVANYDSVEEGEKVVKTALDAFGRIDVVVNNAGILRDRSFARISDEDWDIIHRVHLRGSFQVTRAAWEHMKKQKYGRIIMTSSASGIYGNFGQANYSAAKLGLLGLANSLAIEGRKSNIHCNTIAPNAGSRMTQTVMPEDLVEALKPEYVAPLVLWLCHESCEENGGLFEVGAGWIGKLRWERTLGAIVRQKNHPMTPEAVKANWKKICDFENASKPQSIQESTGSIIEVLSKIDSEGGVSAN
Sequence of CYP2C9 (P11712 whole entry): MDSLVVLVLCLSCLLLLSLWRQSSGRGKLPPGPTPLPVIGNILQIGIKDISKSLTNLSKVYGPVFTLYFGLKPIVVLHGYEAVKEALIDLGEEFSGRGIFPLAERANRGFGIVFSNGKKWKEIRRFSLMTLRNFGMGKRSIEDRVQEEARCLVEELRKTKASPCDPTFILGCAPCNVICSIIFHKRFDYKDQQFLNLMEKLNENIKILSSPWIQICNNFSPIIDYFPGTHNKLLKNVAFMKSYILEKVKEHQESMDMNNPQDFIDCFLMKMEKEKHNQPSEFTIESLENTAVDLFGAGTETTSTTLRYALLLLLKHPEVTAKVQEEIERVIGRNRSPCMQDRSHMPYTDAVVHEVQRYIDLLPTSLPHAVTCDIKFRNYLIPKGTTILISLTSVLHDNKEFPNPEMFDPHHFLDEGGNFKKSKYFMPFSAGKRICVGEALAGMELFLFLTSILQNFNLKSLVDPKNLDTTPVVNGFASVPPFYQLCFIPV

SMILES	IC50 [1]	IC50 [2, 5]	IC50 (CYP2C9)	Assay A: Human Heps Met Clint GMean CLint (μl/min/1E6) (human hepatocytes)	IC50 [3]	IC50 [4, 6]	IC50 [4]	IC50 [2]
N#Cc1c(C(=O)N2CCN(c3ccccn3)CC2)noc1-c1cc(F)c(F)c(O)c1F [Example 15, 3-(4-(Pyridin-2-yl)piperazine-1-carbonyl)-5-(2,4,5-trifluoro-3-hydroxyphenyl)isoxazole-4-carbonitrile]	489 nM	970 nM	2.1 µM	59.8 μl/min/1E6	37.7 µM	–	–	–
CC(C)(C)N(Cc1ccccn1)C(=O)c1noc(-c2cc(F)c(F)c(O)c2F)c1C#N [Example 19, N-(tert-Butyl)-4-cyano-N-(pyridin-2-ylmethyl)-5-(2,4,5-trifluoro-3-hydroxyphenyl)isoxazole-3-carboxamide]	108 nM	2010 nM	1 µM	4.3 μl/min/1E6	19.6 µM	–	–	–
Cn1nc(C2CC2)c2c1CCN(C(=O)c1noc(-c3cc(F)c(F)c(O)c3F)c1C#N)C2 [Example 20, 3-(3-Cyclopropyl-1-methyl-4,5,6,7-tetrahydro-1H-pyrazolo[4,3-c]pyridine-5-carbonyl)-5-(2,4,5-trifluoro-3-hydroxyphenyl)isoxazole-4-carbonitrile]	63 nM	2400 nM	0.4 µM	16.8 μl/min/1E6	–	29.4 µM	–	–
N#Cc1c(C(=O)N2CC[C@@H](c3ccc(Cl)cc3)C2)noc1-c1cc(F)c(F)c(O)c1F [Example 21, (S)-3-(3-(4-Chlorophenyl)pyrrolidine-1-carbonyl)-5-(2,4,5-trifluoro-3-hydroxyphenyl)isoxazole-4-carbonitrile]	32 nM	660 nM	0.2 µM	13.3 μl/min/1E6	–	22.6 µM	–	–
N#Cc1ccc(C2CCN(C(=O)c3noc(-c4cc(F)c(F)c(O)c4F)n3)CC2)cc1 [Example 56, 4-(1-(5-(2,4,5-Trifluoro-3-hydroxyphenyl)-1,2,4-oxadiazole-3-carbonyl)piperidin-4-yl)benzonitrile]	142 nM	1360 nM	5.1 µM	5.9 μl/min/1E6	23.5 µM	–	–	–
O=C(c1noc(-c2cc(F)c(F)c(O)c2F)n1)N1CCN(c2ccccn2)CC1 [Example 58, (4-(Pyridin-2-yl)piperazin-1-yl)(5-(2,4,5-trifluoro-3-hydroxyphenyl)-1,2,4-oxadiazol-3-yl)methanone]	103 nM	1080 nM	7.3 µM	24.6 μl/min/1E6	20.6 µM	–	–	–
N#Cc1ccc(C2CN(C(=O)c3noc(-c4cc(F)c(F)c(O)c4F)n3)C2)cc1 [Example 59, 4-(1-(5-(2,4,5-Trifluoro-3-hydroxyphenyl)-1,2,4-oxadiazole-3-carbonyl)azetidin-3-yl)benzonitrile]	608 nM	3470 nM	13.1 µM	10.2 μl/min/1E6	–	> 50 µM	–	–
O=C(c1noc(-c2cc(F)c(F)c(O)c2F)n1)N1CC(c2ccccc2)C1 [Example 60, (3-Phenylazetidin-1-yl)(5-(2,4,5-trifluoro-3-hydroxyphenyl)-1,2,4-oxadiazol-3-yl)methanone]	137 nM	2980 nM	3.9 µM	13.8 μl/min/1E6	11 µM	–	–	–
COc1ccc(C(C)N(C)C(=O)c2noc(-c3cc(F)c(F)c(O)c3F)n2)cc1 (centres unmarked) [Example 78, N-(1-(4-Methoxyphenyl)ethyl)-N-methyl-5-(2,4,5-trifluoro-3-hydroxyphenyl)-1,2,4-oxadiazole-3-carboxamide]	127 nM	800 nM	3 µM	28.2 μl/min/1E6	–	–	–	–
O=C(c1noc(-c2cc(F)c(F)c(O)c2F)n1)N1CCC(Oc2ccc(F)cc2)C1 (centres unmarked) [Example 79, (3-(4-Fluorophenoxy)pyrrolidin-1-yl)(5-(2,4,5-trifluoro-3-hydroxyphenyl)-1,2,4-oxadiazol-3-yl)methanone]	106 nM	1390 nM	2 µM	10.1 μl/min/1E6	–	–	–	–
N#CC1(c2ccccc2)CCN(C(=O)c2noc(-c3cc(F)c(F)c(O)c3F)n2)CC1 [Example 80, 4-Phenyl-1-(5-(2,4,5-trifluoro-3-hydroxyphenyl)-1,2,4-oxadiazole-3-carbonyl)piperidine-4-carbonitrile]	111 nM	–	3.3 µM	9.8 μl/min/1E6	21.9 µM	–	8.2 µM	460 nM
N#Cc1ccccc1N1CCN(C(=O)c2noc(-c3cc(F)c(F)c(O)c3F)n2)CC1 [Example 82, 2-(4-(5-(2,4,5-Trifluoro-3-hydroxyphenyl)-1,2,4-oxadiazole-3-carbonyl)piperazin-1-yl)benzonitrile]	62 nM	450 nM	4.3 µM	15.4 μl/min/1E6	–	> 50 µM	–	–
N#Cc1ccc(N2CCN(C(=O)c3noc(-c4cc(F)c(F)c(O)c4F)n3)CC2)cc1 [Example 83, 4-(4-(5-(2,4,5-Trifluoro-3-hydroxyphenyl)-1,2,4-oxadiazole-3-carbonyl)piperazin-1-yl)benzonitrile]	102 nM	2880 nM	6.2 µM	11.8 μl/min/1E6	14.4 µM	–	–	–
O=C(c1nnc(-c2ccc(F)c(O)c2)o1)N1CCOC2(CCC2)C1 [Example 90, (5-(4-Fluoro-3-hydroxyphenyl)-1,3,4-oxadiazol-2-yl)(5-oxa-8-azaspiro[3.5]nonan-8-yl)methanone]	626 nM	1690 nM	> 30 µM	>300 μl/min/1E6	> 50 µM	–	–	–
O=C(c1noc(-c2cc(F)c(F)c(O)c2F)n1)N1CCC(OCc2ccccc2)C1 (centres unmarked) [Example 97, (3-(Benzyloxy)pyrrolidin-1-yl)(5-(2,4,5-trifluoro-3-hydroxyphenyl)-1,2,4-oxadiazol-3-yl)methanone]	122 nM	890 nM	1.8 µM	46.6 μl/min/1E6	26.2 µM	–	–	–
N#Cc1ccc2c(c1)CN(C(=O)c1noc(-c3cc(F)c(F)c(O)c3F)n1)C2 [Example 106, 2-(5-(2,4,5-Trifluoro-3-hydroxyphenyl)-1,2,4-oxadiazole-3-carbonyl)isoindoline-5-carbonitrile]	516 nM	1220 nM	5.9 µM	16.1 μl/min/1E6	–	> 50 µM	–	–
C[C@@H]1CN(C(=O)c2noc(-c3c(F)c(O)c(F)c(F)c3Br)n2)C[C@H](C)O1 [Example 124, (5-(2-Bromo-3,4,6-trifluoro-5-hydroxyphenyl)-1,2,4-oxadiazol-3-yl)((2R,6S)-2,6-dimethylmorpholino)methanone]	42 nM	–	27 µM	11.1 μl/min/1E6	–	24.1 µM	–	–
